Bridge positions count the residues as written; N and C are the ends. Peptide text beside a SMILES is read from it.
Key:
integrin αvβ6 [1] = target: T1, integrin αvβ6 (Homo sapiens, UniProt P06756+P18564); assay: AlphaLISA competition assay vs LAP, biotinylated αvβ6; type: binding
integrin αvβ8 [2] = target: T2, integrin αvβ8 (Homo sapiens, UniProt P06756+P26012); assay: AlphaLISA competition assay vs LAP, biotinylated αvβ8; type: binding
integrin αvβ3 [3] = target: T3, integrin αvβ3 (Homo sapiens, UniProt P05106+P06756); assay: AlphaLISA competition assay vs LAP, biotinylated αvβ3; type: binding
integrin αvβ6 [4] = target: T1, integrin αvβ6; assay: ELISA competition assay, integrin αvβ6 binding to LAP
integrin αvβ8 [5] = target: T2, integrin αvβ8; assay: ELISA competition assay, integrin αvβ8 binding to LAP
integrin αvβ3 [6] = target: T3, integrin αvβ3; assay: ELISA competition assay, integrin αvβ3; type: binding
[7] = αvβ6 IC50, ELISA competition vs LAP, mean, n ≥ 3

Row | IC50 (integrin αvβ6 [4]) | Structure (SMILES) | IC50 (integrin αvβ6 [1]) | IC50 (integrin αvβ8 [2]) | IC50 (integrin αvβ3 [3]) | IC50 (integrin αvβ6 [4]; [7]) | IC50 (integrin αvβ8 [5]) | IC50 (integrin αvβ3 [6])
1 | – | CC[C@H](C)[C@H](NC(=O)[C@@H]1CCCN1C(=O)[C@@H](NC(=O)[C@H](CC(C)C)NC(=O)[C@H](CC(=O)O)NC(=O)CNC(=O)[C@H](CCCNC(=N)N)NC(=O)[C@H](Cc1ccccc1)NC(=O)[C@H](Cc1ccc(O)cc1)NC(=O)[C@@H]1CCC(=O)NCC(=O)NCC(=O)N[C@@H](C)C(=O)NCC(=O)N[C@@H](Cc2c[nH]cn2)C(=O)N[C@@H](C(C)C)C(=O)N2CCC[C@H]2C(=O)N1)[C@@H](C)O)C(=O)N[C@@H](CO)C(=O)N[C@@H](Cc1ccccc1)C(=O)N[C@@H](Cc1ccc(O)cc1)C(=O)NCC(=O)O [lassotide 7] (GGAGHVPEYFRGDLTPISFYG-OH; lactam N-8; C-terminus assumed) | 2.04 µM | 0.485 µM | 0.571 µM | – | – | –
2 | – | CC[C@H](C)[C@H](NC(=O)[C@@H]1CCCN1C(=O)[C@H](CC(C)C)NC(=O)[C@H](CC(=O)O)NC(=O)CNC(=O)[C@H](CCCNC(=N)N)NC(=O)[C@@H](NC(=O)[C@H](Cc1ccc(O)cc1)NC(=O)[C@@H]1CCC(=O)NCC(=O)NCC(=O)N[C@@H](C)C(=O)NCC(=O)N[C@@H](Cc2c[nH]cn2)C(=O)N[C@@H](C(C)C)C(=O)N2CCC[C@H]2C(=O)N1)C(C)C)C(=O)N[C@@H](CO)C(=O)N[C@@H](Cc1ccccc1)C(=O)N[C@@H](Cc1ccc(O)cc1)C(=O)NCC(=O)O [lassotide 12] (GGAGHVPEYVRGDLPISFYG-OH; lactam N-8; C-terminus assumed) | – | – | – | 0.177 µM | 0.475 µM | 0.001 µM
3 | – | CC[C@H](C)[C@@H]1NC(=O)[C@H](CO)NC(=O)CC[C@@H](C(=O)N[C@@H](CO)C(=O)N[C@@H](CCSC)C(=O)N[C@@H](CO)C(=O)N[C@@H](CO)C(=O)N[C@@H](CCC(N)=O)C(=O)N[C@H](C(=O)N[C@@H](Cc2ccc(O)cc2)C(=O)N[C@@H](Cc2c[nH]c3ccccc23)C(=O)N2CCC[C@H]2C(=O)O)[C@@H](C)O)NC(=O)[C@H](CCCNC(=N)N)NC(=O)[C@H](CC(C)C)NC(=O)CNC(=O)[C@H](CO)NC(=O)[C@H](CC(=O)O)NC(=O)CNC1=O [lassotide 17, caulonodin V, reference compound] (SIGDSGLRESMSSQTYWP-OH; lactam N-9; C-terminus assumed) | – | – | – | > 10 µM | > 10 µM | > 10 µM
4 | – | CC[C@H](C)[C@H](NC(=O)CNC(=O)[C@@H](NC(=O)[C@H](Cc1ccccc1)NC(=O)[C@H](Cc1ccc(O)cc1)NC(=O)[C@@H]1CCC(=O)NCC(=O)NCC(=O)N[C@@H](C)C(=O)NCC(=O)N[C@@H](Cc2cnc[nH]2)C(=O)N[C@@H](C(C)C)C(=O)N2CCC[C@H]2C(=O)N1)C(C)C)C(=O)NCC(=O)N[C@H](C(=O)N1CCC[C@H]1C(=O)N[C@H](C(=O)N[C@@H](CO)C(=O)N[C@@H](Cc1ccccc1)C(=O)N[C@@H](Cc1ccc(O)cc1)C(=O)NCC(=O)O)[C@@H](C)CC)[C@@H](C)O [lassotide 1, MccJ25, reference compound] (GGAGHVPEYFVGIGTPISFYG-OH; lactam N-8) | > 10 µM | > 10 µM | > 10 µM | – | – | –
5 | – | CC[C@H](C)[C@H](NC(=O)[C@@H]1CCCN1C(=O)[C@H](CC(C)C)NC(=O)[C@H](CC(=O)O)NC(=O)CNC(=O)[C@H](CCCNC(=N)N)NC(=O)[C@H](Cc1ccccc1)NC(=O)[C@H](Cc1ccc(O)cc1)NC(=O)[C@@H]1CCC(=O)NCC(=O)NCC(=O)N[C@@H](C)C(=O)NCC(=O)N[C@@H](Cc2c[nH]cn2)C(=O)N[C@@H](C(C)C)C(=O)N2CCC[C@H]2C(=O)N1)C(=O)N[C@@H](CO)C(=O)N[C@@H](Cc1ccccc1)C(=O)N[C@@H](Cc1ccc(O)cc1)C(=O)NCC(=O)O [lassotide 13] (GGAGHVPEYFRGDLPISFYG-OH; lactam N-8; C-terminus assumed) | – | – | – | 0.624 µM | 0.221 µM | 0.02 µM
6 | > 10 µM | CC[C@H](C)[C@@H]1NC(=O)[C@H]([C@@H](C)CC)NC(=O)[C@@H]2CCCN2C(=O)CNC(=O)[C@H](CC(=O)O)NC(=O)[C@H](CO)NC(=O)CNC(=O)CC[C@@H](C(=O)N[C@@H](Cc2ccccc2)C(=O)N[C@@H](Cc2ccccc2)C(=O)N[C@@H](CC(N)=O)C(=O)N2CCC[C@H]2C(=O)N[C@@H](CC(N)=O)C(=O)NCC(=O)N[C@H](C(=O)N[C@@H](CCSC)C(=O)N[C@@H](Cc2c[nH]cn2)C(=O)N[C@@H](Cc2ccc(O)cc2)C(=O)NCC(=O)O)C(C)C)NC1=O [lassotide 15, klebsidin, reference compound] (GSDGPIIEFFNPNGVMHYG-OH; lactam N-8; C-terminus assumed) | – | – | – | – | > 10 µM | > 10 µM
7 | – | CC[C@H](C)[C@H](NC(=O)[C@@H]1CCCN1C(=O)[C@H](Cc1ccccc1)NC(=O)[C@H](CC(=O)O)NC(=O)CNC(=O)[C@H](CCCNC(=N)N)NC(=O)[C@@H](NC(=O)[C@H](Cc1ccccc1)NC(=O)[C@H](Cc1ccc(O)cc1)NC(=O)[C@@H]1CCC(=O)NCC(=O)NCC(=O)N[C@@H](C)C(=O)NCC(=O)N[C@@H](Cc2c[nH]cn2)C(=O)N[C@@H](C(C)C)C(=O)N2CCC[C@H]2C(=O)N1)C(C)C)C(=O)N[C@@H](CO)C(=O)N[C@@H](Cc1ccccc1)C(=O)N[C@@H](Cc1ccc(O)cc1)C(=O)NCC(=O)O [lassotide 3] (GGAGHVPEYFVRGDFPISFYG-OH; lactam N-8; C-terminus assumed) | 0.253 µM | 0.295 µM | 0.001 µM | – | – | –
8 | – | CC[C@H](C)[C@@H]1NC(=O)[C@H]([C@@H](C)CC)NC(=O)[C@@H]2CCCN2C(=O)CNC(=O)[C@H](CC(=O)O)NC(=O)[C@H](CO)NC(=O)CNC(=O)CC[C@@H](C(=O)N[C@@H](Cc2ccccc2)C(=O)N[C@@H](CCCNC(=N)N)C(=O)NCC(=O)N[C@@H](CC(=O)O)C(=O)N[C@@H](CC(C)C)C(=O)NCC(=O)N[C@H](C(=O)N[C@@H](CCSC)C(=O)N[C@@H](Cc2c[nH]cn2)C(=O)N[C@@H](Cc2ccc(O)cc2)C(=O)NCC(=O)O)C(C)C)NC1=O [lassotide 16] (GSDGPIIEFRGDLGVMHYG-OH; lactam N-8; C-terminus assumed) | – | – | – | 0.03 µM | 0.214 µM | 1.06 µM
9 | – | CC[C@H](C)[C@H](NC(=O)[C@@H]1CCCN1C(=O)[C@H](CC(C)C)NC(=O)[C@H](CC(=O)O)NC(=O)[C@@H]1CCCN1C(=O)[C@H](CCCNC(=N)N)NC(=O)[C@@H](NC(=O)[C@H](Cc1ccccc1)NC(=O)[C@H](Cc1ccc(O)cc1)NC(=O)[C@@H]1CCC(=O)NCC(=O)NCC(=O)N[C@@H](C)C(=O)NCC(=O)N[C@@H](Cc2c[nH]cn2)C(=O)N[C@@H](C(C)C)C(=O)N2CCC[C@H]2C(=O)N1)C(C)C)C(=O)N[C@@H](CO)C(=O)N[C@@H](Cc1ccccc1)C(=O)N[C@@H](Cc1ccc(O)cc1)C(=O)NCC(=O)O [lassotide 10] (GGAGHVPEYFVRPDLPISFYG-OH; lactam N-8; C-terminus assumed) | > 10 µM | > 10 µM | > 10 µM | – | – | –
10 | – | CC[C@H](C)[C@H](NC(=O)[C@@H]1CCCN1C(=O)[C@H](Cc1c[nH]cn1)NC(=O)[C@H](CC(=O)O)NC(=O)CNC(=O)[C@H](CCCNC(=N)N)NC(=O)[C@@H](NC(=O)[C@H](Cc1ccccc1)NC(=O)[C@H](Cc1ccc(O)cc1)NC(=O)[C@@H]1CCC(=O)NCC(=O)NCC(=O)N[C@@H](C)C(=O)NCC(=O)N[C@@H](Cc2c[nH]cn2)C(=O)N[C@@H](C(C)C)C(=O)N2CCC[C@H]2C(=O)N1)C(C)C)C(=O)N[C@@H](CO)C(=O)N[C@@H](Cc1ccccc1)C(=O)N[C@@H](Cc1ccc(O)cc1)C(=O)NCC(=O)O [lassotide 6] (GGAGHVPEYFVRGDHPISFYG-OH; lactam N-8; C-terminus assumed) | 0.457 µM | 0.167 µM | – | – | – | –
11 | – | CC[C@H](C)[C@H](NC(=O)[C@H](CC(C)C)NC(=O)[C@H](CC(=O)O)NC(=O)CNC(=O)[C@H](CCCNC(=N)N)NC(=O)[C@@H](NC(=O)[C@H](Cc1ccccc1)NC(=O)[C@H](Cc1ccc(O)cc1)NC(=O)[C@@H]1CCC(=O)NCC(=O)NCC(=O)N[C@@H](Cc2ccccc2)C(=O)NCC(=O)N[C@@H](Cc2c[nH]cn2)C(=O)N[C@@H](C(C)C)C(=O)N2CCC[C@H]2C(=O)N1)C(C)C)C(=O)N[C@@H](CO)C(=O)N[C@@H](Cc1ccccc1)C(=O)N[C@@H](Cc1ccc(O)cc1)C(=O)NCC(=O)O [lassotide 33] (GGFGHVPEYFVRGDLISFYG-OH; lactam N-8; C-terminus assumed) | 0.347 µM | 0.125 µM | – | – | – | –
12 | – | CC[C@H](C)[C@H](NC(=O)[C@H](CC(C)C)NC(=O)[C@H](CC(=O)O)NC(=O)CNC(=O)[C@H](CCCNC(=N)N)NC(=O)CNC(=O)[C@@H](NC(=O)[C@H](Cc1ccccc1)NC(=O)[C@H](Cc1ccc(O)cc1)NC(=O)[C@@H]1CCC(=O)NCC(=O)NCC(=O)N[C@@H](C)C(=O)NCC(=O)N[C@@H](Cc2c[nH]cn2)C(=O)N[C@@H](C(C)C)C(=O)N2CCC[C@H]2C(=O)N1)C(C)C)C(=O)N[C@@H](CO)C(=O)N[C@@H](Cc1ccccc1)C(=O)N[C@@H](Cc1ccc(O)cc1)C(=O)NCC(=O)O [lassotide 8] (GGAGHVPEYFVGRGDLISFYG-OH; lactam N-8; C-terminus assumed) | 0.478 µM | 0.466 µM | 2.56 µM | – | – | –
13 | – | CC[C@H](C)[C@H](NC(=O)[C@@H]1CCCN1C(=O)[C@H](CC(C)C)NC(=O)[C@H](CC(=O)O)NC(=O)CNC(=O)[C@H](CCCNC(=N)N)NC(=O)[C@@H](NC(=O)[C@H](Cc1ccccc1)NC(=O)[C@H](Cc1ccc(O)cc1)NC(=O)[C@@H]1CCC(=O)NCC(=O)NCC(=O)N[C@@H](C)C(=O)NCC(=O)N[C@@H](Cc2c[nH]cn2)C(=O)N[C@@H](C(C)C)C(=O)N2CCC[C@H]2C(=O)N1)C(C)C)C(=O)N[C@@H](CO)C(=O)N[C@@H](Cc1ccccc1)C(=O)N[C@@H](Cc1ccc(O)cc1)C(=O)NCC(=O)O [lassotide 2] (GGAGHVPEYFVRGDLPISFYG-OH; lactam N-8; C-terminus assumed) | 0.263 µM | – | 0.001 µM | – | – | –
